Reference: US5747448A, “Derivatives of cyclodepsipeptide PF 1022” (Meiji Seika Kaisha, Ltd., priority 1993, dated 1998)
Where two headings read alike, the source gives them in different places.

Legend:
Haemonchus contortus = assay: In vivo Anthelmintic Activity Test on Nematodes in sheep (egg excretion); set-up: key: "0" when there were no anthelmintic activities; "2" when excretion of parasite's eggs was observed; "3" when excretion of parasite's eggs stopped, that is, parasitic worms were removed completely; conditions: parasitic worms H, oral gelatin capsule
Text: (§1) Test 2 In vivo Anthelmintic Activity Test on Nematodes To each sheep which had artificially been infected with Trichostrongylus colubriformis (hereinafter abbreviated as "T") and Haemonchus contortus (hereinafter abbreviated as […]), respectively, a test substance weighed in a dose accurately calculated from the weight […] of the sheep was orally administered in the form of a gelatin capsule. The number of parasite's eggs excreted with feces from the sheep was counted quantitatively before and after the administration so that the degree of anthelmintic effects was determined. The anthelmintic effects are evaluated by rated numeral 0, 1, 2 or 3. The anthelmintic effects are rated "0" when there were no anthelmintic activities, "2" when excretion of parasite's eggs was observed, and "3" when excretion of parasite's eggs stopped, that is, parasitic worms were removed completely.

[1] = tested on: Trichostrongylus colubriformis; assay: as above; set-up: key: "0" when there were no anthelmintic activities; "2" when excretion of parasite's eggs was observed; "3" when excretion of parasite's eggs stopped, that is, parasitic worms were removed completely; conditions: parasitic worms T, oral gelatin capsule, 0.5 mg/kg
Text: as §1

fowl roundworms = assay: Fowl Roundworm Eliminating Test; assay type: in vivo; conditions: infected fowls, worms counted to day 7
Description: Test 1 Fowl Roundworm Eliminating Test Fowls (three fowls per group), which had been artificially infected with fowl roundworms and whose infection therewith had been confirmed by scatoscopy, were used as experimental animals. Upon administration of each test substance, the test substance weighed in a dose (mg) accurately calculated on the basis of the body weight (kg) of each fowl was suspended in carboxymethylcellulose-containing water, and the resulting suspension was administered orally as a single dose unit using a stomach tube. After the administration, the worms eliminated from the fowls were counted daily. Seven days after the administration, the fowl was sacrificed and autopsied and the worms remaining in its intestinal tract were counted. The percent elimination was calculated in accordance with the following calculation equation: [formula] Each test substance is indicated by the corresponding substance code name shown above in Table 1.

[2] = tested on: Nippostrongylus brasillensis; assay: Anthelmintic effects on a rat intestinal nematode (N. brasillensis-infected rats); assay type: in vivo; conditions: male Wistar rats; for Number of remaining worms (average value ± SD): 10 mg/kg p.o. 7 days after inoculation, autopsy 10 days after inoculation; for % Effectiveness: 10 mg/kg p.o., compared with infected control group
Description: Anthelmintic effects of certain PF1022 derivatives on a rat intestinal nematode were tested in accordance with the following method.
Sixteen male Wistar rats were divided into eight groups (two rats per group), and about 2,000 larval worms of Nippostrongylus brasillensis were hypodermically inoculated per rat. Seven days after the inoculation, PF1022, PF1022E, PF1022-002, PF1022-003, PF1022-209, PF1022-218 and PF1022-219 were, as test substances, forcedly administered p.o. to the rats in the groups, respectively, in an amount of 10 mg/kg per rat. Upon administration, each test substance (8 mg) was dissolved in 0.2 ml of dimethyl sulfoxide and then, the resultant solution was diluted with distilled water to give a 2 ml suspension. Ten days after the inoculation,the rats were each subjected to autopsy and imaginal worms parasitic on the small intestines were counted.
As the test results, the average of remaining worms in each of the eight groups and the percent effectiveness of the test substance in each group as compared with that of the infected control group are shown in Table 4.

[3] = amide bond, 24-membered ring, THF/DMF

With `CC(C)C[C@H]1C(=O)O[C@H](Cc2ccccc2)C(=O)N(C)[C@@H](CC(C)C)C(=O)O[C@H](C)C(=O)N(C)[C@@H](CC(C)C)C(=O)O[C@H](Cc2ccccc2)C(=O)N(C)[C@@H](CC(C)C)C(=O)O[C@H](C)C(=O)N1C` [PF1022, Cyclo-(L-MeLeu-D-Lac-L-MeLeu-D-PhLac-L-MeLeu-D-Lac-L-MeLeu-D-PhLac), reference compound] the Degree of effects (Haemonchus contortus; 0.05 mg/kg) was 3, the Degree of effects [1] was 3 and the “% Elimination” value (fowl roundworms; single oral dose 0.5 mg/kg) was 50-70%. For the same molecule, the “% Elimination” value (fowl roundworms; single oral dose 1.0 mg/kg) was 60-86%, the “% Elimination” value (fowl roundworms; single oral dose 2.0 mg/kg) was 100% and the “Number of remaining worms (average value ± SD)” value [2] was 403 ± 32.5. The “% Effectiveness” value ([2]; 10 mg/kg) was 80% and the “% Effectiveness” value ([2]; listed as PF 1022, 10 mg/kg) was 80.2%.
With `CC(C)C[C@H]1OC(=O)[C@H](CC(C)C)N(C)C(=O)[C@@H](C)OC(=O)[C@H](CC(C)C)N(C)C(=O)[C@@H](Cc2ccccc2)OC(=O)[C@H](CC(C)C)N(C)C(=O)[C@@H](C)OC(=O)[C@H](CC(C)C)N(C)C1=O` [PF1022-003, cyclo-(-L-MeLeu-D-Lac-L-MeLeu-D-PhLac-L-MeLeu-D-Lac-L-MeLeu-D-LEUA-)] the ring closure, isolated yield ([3]; from H-MeLeu-dLEUA-MeLeu-dLac-MeLeu-dPhLac-MeLeu-dLac-OH, EDCI.HCl/HOBt/NMM/KCl/CsCl, 3 steps) was 44%, the “% Elimination” value (fowl roundworms; single oral dose 10 mg/kg) was 76% and the “Number of remaining worms (average value ± SD)” value [2] was 689 ± 48.1. The “% Effectiveness” value [2] was 66.1%.
`CC(C)CC1C(=O)OC(Cc2ccc(OCc3ccccc3)cc2)C(=O)N(C)C(CC(C)C)C(=O)OC(C)C(=O)N(C)C(CC(C)C)C(=O)OC(Cc2ccc(OCc3ccccc3)cc2)C(=O)N(C)C(CC(C)C)C(=O)OC(C)C(=O)N1C` [PF1022-201, cyclo-(L-MeLeu-D-Lac-L-MeLeu-D-TYRA(OBn))2] gave a Degree of effects (Haemonchus contortus; 0.1 mg/kg) of 1 and a Degree of effects (Haemonchus contortus; 0.25 mg/kg) of 3.
In the case of `CC(C)C[C@H]1C(=O)O[C@H](Cc2ccc(OC(C)(C)C)cc2)C(=O)N(C)[C@@H](CC(C)C)C(=O)O[C@H](C)C(=O)N(C)[C@@H](CC(C)C)C(=O)O[C@H](Cc2ccccc2)C(=O)N(C)[C@@H](CC(C)C)C(=O)O[C@H](C)C(=O)N1C` [PF1022-215, cyclo-(L-MeLeu-D-PhLac-L-MeLeu-D-Lac-L-MeLeu-D-TYRA(O-t-Bu)-L-MeLeu-D-Lac)], the Degree of effects (Haemonchus contortus; 0.25 mg/kg) is reported as 3, the “% Elimination” value (fowl roundworms; single oral dose 1.0 mg/kg) is reported as 37% and the “% Elimination” value (fowl roundworms; single oral dose 2.0 mg/kg) is reported as 98%.
In the case of `CC(C)C[C@@H]1NC(=O)[C@@H](C)OC(=O)[C@H](CC(C)C)N(C)C(=O)[C@@H](Cc2ccccc2)OC(=O)[C@H](CC(C)C)NC(=O)[C@@H](C)OC(=O)[C@H](CC(C)C)N(C)C(=O)[C@@H](Cc2ccccc2)OC1=O` [PF1022-219, cyclo-(L-MeLeu-D-Lac-L-Leu-D-PhLac)2], the Degree of effects [1] is reported as 3, the “Number of remaining worms (average value ± SD)” value [2] is reported as 2084.5 and the “% Effectiveness” value [2] is reported as 0%.
`CC(C)C[C@H]1C(=O)O[C@H](C(C)C)C(=O)N(C)[C@@H](CC(C)C)C(=O)O[C@H](Cc2ccccc2)C(=O)N(C)[C@@H](CC(C)C)C(=O)O[C@H](C(C)C)C(=O)N(C)[C@@H](CC(C)C)C(=O)O[C@H](Cc2ccccc2)C(=O)N1C` [cyclo(L-MeLeu-D-VALA-L-MeLeu-D-PhLac)2] gave a ring closure, isolated yield ([3]; from H-MeLeu-dVALA-MeLeu-dPhLac-MeLeu-dVALA-MeLeu-dPhLac-OH, EDCI.HCl/HOBt/NMM/LiCl/KCl/NaCl/CsCl, 0.9 mM, 25.0 °C) of 56.5%.
Molecule `CC(C)C[C@H]1C(=O)O[C@H](C)C(=O)N(C)[C@@H](CC(C)C)C(=O)O[C@H](C)C(=O)N(C)[C@@H](CC(C)C)C(=O)O[C@H](C)C(=O)N(C)[C@@H](CC(C)C)C(=O)O[C@H](C)C(=O)N1C` [cyclo-(L-MeLeu-D-Lac-)4] has a ring closure, isolated yield ([3]; from H-MeLeu-dLac-MeLeu-dLac-MeLeu-dLac-MeLeu-dLac-OH, EDCI.HCl/HOBt/NMM/KCl/CsCl, 1.0 mM, 3 steps) of 86%.
Work on `CC(C)C[C@H]1C(=O)O[C@H](Cc2ccc(OCc3ccccc3)cc2)C(=O)N(C)[C@@H](CC(C)C)C(=O)O[C@H](C)C(=O)N(C)[C@@H](CC(C)C)C(=O)O[C@H](Cc2ccc(OCc3ccccc3)cc2)C(=O)N(C)[C@@H](CC(C)C)C(=O)O[C@H](C)C(=O)N1C` [cyclo-(L-MeLeu-D-Lac-L-MeLeu-D-TYRA(OBn))2] yielded a ring closure, isolated yield ([3]; from H-MeLeu-dLac-MeLeu-dTYRA(OBn)-MeLeu-dLac-MeLeu-dTYRA(OBn)-OH, EDCI.HCl/HOBt/NMM/LiCl/NaCl/KCl/CsCl, 0.66 mM, 25.0 °C) of 60.5%.
